One series has as its system human red blood cells. The conditions noted are these: compared to D-Piscidin 1 or D-Dermaseptin S4; 18 hours.
Series [1] relates to methicillin sensitive Staph. aureus (MSSA). It counts as cell-based, Staphylococcus aureus. The conditions noted are these: for MIC: MH medium, 37° C., 24 h. The protocol: (§1) MICs were determined by a standard microtiter dilution method in Mueller Hinton (MH) medium. Briefly, cells were grown overnight at 37° C. in MH broth and were diluted in the same medium. Serial dilutions of the peptides were added to the microtiter plates in a volume of 50 μl, followed by the addition of 50 μl of bacteria to give a final inoculum of 5×10^5 colony-forming units (CFU)/mL. The plates were incubated at 37° C. for 24 h, and the MICs were determined as the lowest peptide concentration that inhibited growth.
(§2) Various peptides of the invention were tested for antimicrobial activity as described in Example 1. The antimicrobial activity of these peptides was similarly tested against Gram-positive organisms, including Staphylococcus aureus.

Series [2] has as its system methicillin resistant Staph. aureus (MRSA). Type of series: cell-based, Staphylococcus aureus. The conditions noted are these: for MIC: MH medium, 37° C., 24 h. The protocol: as §1, §2

Values after ≈ are worked out from the molar mass of the structure shown. Read-outs that look alike come from different tables or passages of the source.

These results are taken from patent US20190202877A1, “DERMASEPTIN-TYPE AND PISCIDIN-TYPE ANTIMICROBIAL PEPTIDES” (THE REGENTS OF THE UNIVERSITY OF COLORADO, a body corporate, priority 2014, published 2019).

Method for human red blood cells: Peptide samples (concentrations determined by amino acid analysis) were added to 1% human erythrocytes in phosphate-buffered saline (100 mM NaCl, 80 mM Na2HPO4, 20 mM NaH2PO4, pH 7.4) and the reaction mixtures were incubated at 37° C. for 18 h in microtiter plates. Two-fold serial dilutions of the peptide samples were carried out. This determination was made by withdrawing aliquots from the hemolysis assays and removing unlysed erythrocytes by centrifugation (800×g). Hemoglobin release was determined spectrophotometrically at 570 nm. The control for 100% hemolysis was a sample of erythrocytes treated with water or 0.1% Triton-X 100. The control for no release of hemoglobin was a sample of 1% erythrocytes without any peptide added. […] The hemolytic activity was determined as the peptide concentration that caused 50% hemolysis of erythrocytes after 18 h (HC50). HC50 as determined from a plot of percent lysis versus peptide concentration (μM). The inventors also determined the hemolytic activity after 1 hour at 37° C.

The MIC is the least concentration at which growth counts as inhibited. Lower therefore signals a more susceptible organism. Consider `CC[C@@H](C)[C@@H](NC(=O)CNC(=O)[C@@H](CCCNC(=N)N)NC(=O)[C@@H](Cc1ccccc1)NC(=O)[C@H](NC(=O)[C@@H](Cc1c[nH]cn1)NC(=O)[C@@H](Cc1c[nH]cn1)NC(=O)[C@@H](Cc1ccccc1)NC(=O)[C@H](N)Cc1ccccc1)[C@H](C)CC)C(=O)N[C@@H](C(=O)N[C@H](Cc1c[nH]cn1)C(=O)N[C@@H](C(=O)NCC(=O)N[C@H](CCCCN)C(=O)N[C@@H](C(=O)N[C@@H](C(=O)N[C@H](Cc1c[nH]cn1)C(=O)N[C@H](CCCNC(=N)N)C(=O)N[C@H](CC(C)C)C(=O)N[C@@H](C(=O)N[C@@H](C(=O)NCC(N)=O)[C@H](C)O)C(C)C)[C@H](C)CC)[C@H](C)O)C(C)C)C(C)C` [D-Piscidin 1, reference compound], for which the “Fold improvement in HC50” value in the series with human red blood cells is on record as 1.0 fold. The minimal inhibitory concentration (MIC) in series [1] (MSSA strain BL7429) is 3.0 µM (≈ 7.71 µg/mL); in series [1] (MSSA strain M21913) it was 3.0 µM (≈ 7.71 µg/mL); in series [1] (MSSA strain M21935), 3.0 µM (≈ 7.71 µg/mL); in series [1] (MSSA strain M21991), 6.1 µM (≈ 15.7 µg/mL); in series [1] (MSSA strain M22075), 3.0 µM (≈ 7.71 µg/mL); in series [1] (MSSA strain M22097), 6.1 µM (≈ 15.7 µg/mL). The minimal inhibitory concentration (MIC) in series [1] (MSSA strain M22111) was found to be 1.5 µM (≈ 3.86 µg/mL); in series [1] (MSSA strain M22274) it was 3.0 µM (≈ 7.71 µg/mL); in series [1] (MSSA strain M22287) it was 3.0 µM (≈ 7.71 µg/mL); in series [1] (MSSA strain M22300), 3.0 µM (≈ 7.71 µg/mL); in series [1] (MSSA strain M22312) it was 6.1 µM (≈ 15.7 µg/mL); in series [1] (MSSA strain M22315), 3.0 µM (≈ 7.71 µg/mL). The MIC in series [2] (MRSA strain M21742 (nose)), in series [2] (MRSA strain M21756 (nose)), in series [2] (MRSA strain M22111 (ear)), in series [2] (MRSA strain M22130), in series [2] (MRSA strain M22224 (leg)) and in series [2] (MRSA strain M22354) was 3.0 µM (≈ 7.71 µg/mL) throughout. Moreover, the minimal inhibitory concentration (MIC) in series [2] (MRSA strain M22360 (labia)) was 1.5 µM (≈ 3.86 µg/mL); in series [2] (MRSA strain M22424 (arm)) it was 3.0 µM (≈ 7.71 µg/mL). The “MIC GM, MSSA” value in series [1] (geometric mean of MIC from 12 different isolates of MSSA) worked out at 3.4 µM (≈ 8.74 µg/mL). For the same molecule, the “MIC GM, MRSA” value in series [2] (geometric mean of MIC from 8 different isolates of MRSA) is 2.8 µM (≈ 7.2 µg/mL).
